Six molecules from patent publication US20130131034A1, “DERIVATIVES OF AMINOINDANES, THEIR PREPARATION AND THEIR APPLICATION IN THERAPEUTICS” (SANOFI, priority 2010, published 2013) can be followed below.

Counter-ions that a name gives are not always drawn.

The molecule `CC(C)(N)C1CN([C@@H]2Cc3ccccc3[C@H]2Oc2ccc(C#N)cc2Cl)C1` (as salt: HCl) [Compound 125, 4-({(1R,2R)-2-[3-(2-aminopropan-2-yl)azetidin-1-yl]-2,3-dihydro-1H-inden-1-yl}oxy)-3-chlorobenzonitrile] registered a melting point of 93 °C.

`N#Cc1ccc(O[C@@H]2c3ncccc3C[C@H]2N2CCC[C@@H](N)C2)c(Cl)c1` (as salt: HCl) [Compound 138, 4-({(6R,7S)-6-[(3R)-3-aminopiperidin-1-yl]-6,7-dihydro-5H-cyclopenta[b]pyridin-7-yl}oxy)-3-chlorobenzonitrile] came in with a melting point of 180 °C.

With `COc1ccc2c(c1)[C@@H](Oc1ccc3c(c1)CCC(=O)N3)[C@H](N1CCC[C@@H](N)C1)C2` (as salt: HCl) [Compound 131, 6-({(1R,2R)-2-[(3R)-3-aminopiperidin-1-yl]-6-methoxy-2,3-dihydro-1H-inden-1-yl}oxy)-3,4-dihydroquinolin-2(1H)-one], the melting point came to 145.6 °C.

Take `N[C@@H]1CCCN([C@@H]2Cc3ccccc3[C@H]2Oc2cc3c(cc2Cl)NC(=O)CC3)C1` (as salt: HCl) [Compound 132, 6-({(1R,2R)-2-[(3R)-3-aminopiperidin-1-yl]-2,3-dihydro-1H-inden-1-yl}oxy)-7-chloro-3,4-dihydroquinolin-2(1H)-one]: the melting point is 183.7 °C.

In the case of `N#Cc1ccc(O[C@@H]2c3cccnc3C[C@H]2N2CCC[C@@H](N)C2)c(Cl)c1` (as salt: HCl) [Compound 137, 4-({(5R,6R)-6-[(3R)-3-aminopiperidin-1-yl]-6,7-dihydro-5H-cyclopenta[b]pyridin-5-yl}oxy)-3-chlorobenzonitrile], the melting point stood at 172 °C.

Take `CS(=O)(=O)c1ccc2c(c1)[C@@H](Oc1ccc(C#N)cc1Cl)[C@H](N1CCC[C@@H](N)C1)C2` (as salt: HCl) [Compound 123, 4-{[(1R,2R)-2-[(3R)-3-aminopiperidin-1-yl]-6-(methylsulfonyl)-2,3-dihydro-1H-inden-1-yl]oxy}-3-chlorobenzonitrile]: the melting point came out at 162 °C.
